{"source": "patent US20200038514A1", "about": "“FOLATE CONJUGATE FOR USE IN TARGETING TUMOR ASSOCIATED MACROPHAGES” (ENDOCYTE, INC., priority 2016, published 2020)", "key": {"4T1 TAMs": {"test_system": "4T1 TAMs", "assay": "Activity against 4T1 TAMs in vivo (FACS of tumors)", "set-up": "species or system rats", "source_text": "Female Foxn1^nu nude rats (Harlan, Inc., Indianapolis, Ind.) on a folate-deficient diet were subcutaneously implanted with 1×10^6 4 T1 tumor cells in the mammary region. When the tumors reached ˜1088 mm^3, the animals (n=3) were intravenously dosed with nothing (Control), 254 nmol/kg of Conjugate 5, 254 nmol/kg of Conjugate 5 plus 127 μmol/kg of EC0923, or 127 μmol/kg of EC0923. Four days later, the entire tumors were harvested, enzymatically digested, and subjected to FACS analysis. The tumor cell suspensions were stained for macrophage markers (CD163, CD11b), cell viability (propidium iodide), and late and early apoptosis (Annexin V)."}, "4T1p tumor cells": {"test_system": "4T1p tumor cells", "assay": "XTT cell viability assay, 4T1p", "assay_type": "cell-based, mouse", "conditions": "2 hours exposure up to 100 nM, 96 hour chase", "experimental": "The FRα− and FRα+ expressing cell lines utilized to evaluate Conjugate 5 activity in-vitro and/or ex-vivo studies were (1) 4T1p, a mouse breast cancer cell line that resembles triple negative breast cancer in humans, (2) 4T1-C12, 4T1p stably transfected with a mouse FRa, and (3) IGROV1, a human ovarian carcinoma cell line that expresses the human FRα. 4T1p and 4T1-C12 cells were grown respectively in a folate-replete or folate-free RPMI1640 medium (Gibco BRL) (FFRPMI) containing 10% heat-inactivated fetal calf serum (HIFCS) and antibiotics, and maintained under a 5% CO2 atmosphere using standard cell culture techniques. IGROV1 cells were grown in the same medium as 4T1-C12.\n4T1p and 4T1-C12 tumor cells in 96-well plates (20,000 cells/well) were treated with 10-fold serial dilutions of Conjugate 5 (100 nM) in FFRPMI medium. After a 2 hour exposure, the drug-containing media were replaced and the cells were washed and allowed to incubate further for 96 hours. The cell viability was assessed by adding XTT (2,3-bis(2-methoxy-4-nitro-5-sulfo-phenyl)-2H-tetrazolium-5-carboxanilide) to the culture medium for 2 hours following the manufacturer's instructions. All results were expressed as % absorbance (minus background) relative to the untreated control cells."}, "folate receptor": {"biological_target": "T1, folate receptor (Homo sapiens, UniProt P15328)", "T1 construct": "FR-positive KB cells were seeded in 24-well Falcon plates and allowed to form adherent monolayers; endogenous in cells; host or cells: KB cells", "T1 sequence (P15328 25-234)": "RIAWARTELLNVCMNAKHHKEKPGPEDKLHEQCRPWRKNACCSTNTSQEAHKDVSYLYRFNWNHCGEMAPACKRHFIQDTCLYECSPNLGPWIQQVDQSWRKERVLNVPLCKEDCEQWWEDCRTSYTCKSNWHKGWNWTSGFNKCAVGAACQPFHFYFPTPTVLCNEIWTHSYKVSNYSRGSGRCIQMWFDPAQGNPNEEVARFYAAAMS", "assay": "Relative affinity assay ([3H]FA displacement on KB cells)", "assay_type": "binding", "protocol": "FR-positive KB cells were seeded in 24-well Falcon plates and allowed to form adherent monolayers (>90% confluent) overnight in FFRPMI/HIFCS. Spent incubation medium was replaced with FFRPMI supplemented with 10% HIFCS and containing 100 nmol/L of [^3H]FA in the absence and presence of increasing concentrations of unlabeled FA or the test conjugate. Cells were incubated for 1 hour at 37° C. and then rinsed thrice with 0.5 mL PBS. Five hundred microliters of 1% SDS in PBS were added to each well; after 5 min, cell lysates were collected, transferred to individual vials containing 5 mL of scintillation cocktail, and then counted for radioactivity.\nCells exposed to only the [^3H]FA in FFRPMI (no competitor) were designated as negative controls, whereas cells exposed to the [^3H]FA plus 1 mmol/L unlabeled FA served as positive controls. Disintegrations per minute (DPM) measured in the latter samples (representing nonspecific binding of label) were subtracted from the DPM values from all samples."}, "[1]": {"test_system": "intraperitoneal ID8-C115 tumor", "assay": "Conjugate 5 plus anti-CTLA-4 combination study, survival", "assay_type": "in vivo, mice", "conditions": "Conjugate 5 i.v. 0.1 μmol/kg BIW×6 doses; EC1456 i.v. 2 μmol/kg BIW×6 doses, from day 7; anti-CTLA-4 i.p. 250 μg/dose BIW×5 doses from day 11; untreated ~46 days; 5 animals", "experimental": "To test the effect of Conjugate 5 alone and in combination with anti-CTLA-4 antibody, ID8-C115 tumor cells (5×10^6 cells per animal in 1% syngeneic mouse serum/folate-deficient RPMI1640 medium) were inoculated intraperitoneally 13 days post the date of arrival and start of the folate deficient diet. […] The anti-CTLA-4 antibody dosing solution was prepared by diluting the stock solution (BioXcell, Clone UC10-4F10-11) to 1.25 mg/mL in PBS, pH 7.4. Anti-CTLA-4 (250 μg/dose) was i.p. administered BIW for a total of 5 doses starting 11 days after the tumor implant. […] Mice were weighed 3 times/week and assessed for any clinical sign of swollen bellies indicative of ascites formation and for the evidence of toxicity such as respiratory distress, mobility, weight loss, diarrhea, hunched posture, and failure to eat. Once the animals developed ascites, they were monitored daily and euthanized when ascites became severe (rounded and walking on tip toes). Healthy animals from the same cohort of mice were used as controls for normal weight gain."}, "Calf thymus DNA (CT-DNA)": {"test_system": "Calf thymus DNA (CT-DNA)", "assay": "DNA crosslinking assay (ethidium bromide fluorescence)", "assay_type": "biochemical", "conditions": "1.1 to 75 μM, 37° C. 2 hours", "experimental": "Calf thymus DNA (CT-DNA) was combined with increasing concentrations of Conjugate 5 (1.1 to 75 μM) or Conjugate 5+/−DTT. These solutions were incubated at 37° C. for 2 hours. The solutions were then mixed with ethidium bromide and incubated for 2 hours at room temperature. Fluorescence (Ex: 535 nm, Em: 605 nm) from these samples was measured on the Fluoroskan II fluorimeter. Next, the samples were heated to 104° C. for 5 minutes, cooled on ice for 5 minutes, kept at RT for 15 minutes and fluorescence measured. % crosslinking of each sample was calculated using the fluorescence values from the positive and negative controls."}, "[2]": {"test_system": "KB-CR2000 (platin resistant) tumor", "assay": "In vivo activity against platinum resistant tumors", "set-up": "species or system mice", "conditions": "Conjugate 5 0.5 μmol/kg SIW two weeks; EC1456 2.0 μmol/kg BIW two weeks; n=4", "experimental": "Mice were maintained and tumor volumes were measures according to Method 3.\nKB-CR2000 (platin resistant) tumor cells were inoculated subcutaneously at the right flank of each mouse. Mice were dosed through the lateral tail vein under sterile conditions in a volume of […] of phosphate-buffered saline (PBS)."}, "[3]": {"test_system": "4T1p tumor (FRα-negative)", "assay": "Single-agent activity in vivo, 4T1p mammary tumors", "set-up": "species or system mice", "conditions": "0.2 μmol/kg i.v., BIW×3 doses", "source_text": "Female Balb/c mice (4T1p, 4T1-C12) were purchased from Envigo (Indianapolis, Ind.) and used when they reached 6-8 weeks of age. The mice were fed a folate-deficient diet (TestDiet, St. Louis, Mo.) on the day of arrival.\nSolid tumors in Balb/c mice were generated by subcutaneous implantation of cultured cells at 5×10^5 (4T1p) and 2×10^6 (4T1-C12) per animal in the mammary region.\nStarting on day 0, mice with mammary 4T1p (˜78.3±12.1 mm^3) and 4T1-C12 (˜70.1±14.1 mm^3) were scheduled to receive Conjugate 5 at 200 nmol/kg, biweekly for two weeks. 4T1p tumor bearing mice received a total of 3 doses only and 4T1-C12 tumor bearing mice received a total of 4 doses as planned. Mice were weighed and measured for tumor size 3 times a week. The tumor volumes were calculated by the following formula: V=0.5×a×b^2, where a is the longest axis across the tumor, and b is the shorter axis perpendicular to a. The animals were euthanized when the tumor volume reached ˜1500 mm^3. Mice were also monitored closely for the evidence of toxicity such as respiratory distress, mobility, weight loss, diarrhea, hunched posture, and failure to eat. The last Conjugate 5 dose in the 4T1p tumor-bearing mice was skipped due to weight loss."}}, "data": [{"smiles": "C=C1C[C@H]2C=Nc3cc(OCCCCCOc4cc(N)c(C(=O)N5CC(=C)C[C@H]5C5OCCN5C(=O)OCC(C)(C)SSCCC(=O)NCCNC(=O)CCOCCOCCOCCOCCNC(=O)CCN5C(=O)CC(SC[C@H](NC(=O)[C@H](CC(=O)O)NC(=O)[C@H](CC(=O)O)NC(=O)[C@H](CCCNC(=N)N)NC(=O)[C@H](CC(=O)O)NC(=O)CC[C@H](NC(=O)c6ccc(NCc7cnc8nc(N)[nH]c(=O)c8n7)cc6)C(=O)O)C(=O)O)C5=O)cc4OC)c(OC)cc3C(=O)N2C1", "note": "(stereo partly drawn) [Conjugate 5]", "values": [{"measurement": "anti-TAM activity in presence of 500-fold excess of EC0923", "setting": "4T1 TAMs; 254 nmol/kg Conjugate 5 plus 127 μmol/kg EC0923, single i.v. dose", "value": "not blocked"}, {"measurement": "effect against FR− cell populations including CD163-CD11b+ 4T1 TAMs and 4T1 tumor cells", "setting": "4T1 TAMs; 254 nmol/kg, single i.v. dose", "value": "no effect"}, {"measurement": "effect on CD163+CD11b+ TAM population in 4T1 tumors", "setting": "4T1 TAMs; single i.v. administration, Conjugate 5 254 nmol/kg, EC0923 127 μmol/kg, tumors harvested four days later, n=3", "value": "significantly decrease"}, {"measurement": "activity against FRα-negative 4T1p tumor cell in-vitro", "setting": "4T1p tumor cells", "value": "completely inactive"}, {"measurement": "relative binding affinity toward the folate receptor, fold lower than that of folic acid", "setting": "folate receptor", "value": "~1.9", "unit": "fold"}, {"measurement": "median survival time", "setting": "[1]", "value": "~77", "unit": "days post tumor implant"}, {"measurement": "DNA crosslinking, reduced form", "setting": "Calf thymus DNA (CT-DNA); treated with DTT", "value": "can then crosslink with DNA"}, {"measurement": "DNA crosslinking, intact conjugate", "setting": "Calf thymus DNA (CT-DNA); without DTT", "value": "not able to crosslink DNA"}, {"measurement": "cure (number of mice)", "setting": "[2]", "value": 4}, {"measurement": "body weight", "setting": "[3]", "value": "significant weight loss"}, {"measurement": "complete responders", "setting": "[3]", "value": "no complete responders"}, {"measurement": "tumor sensitivity / tumor growth", "setting": "[3]", "value": "partial sensitivity"}]}]}
